Experiments:
Vero cells = experiment: Cytotoxicity determination in Vero cells monitored by cytopathic effect (CPE); type: cell-based; settings: 48 h, Reed & Muench, concentration that inhibits 50% cellular growth, average ± SD, n=3
Experimental: Vero cells were purchased from the American Type Culture Collection and cultured in Minimum Essential Medium (MEM) supplemented with 10% Fetal Bovine Serum (FBS) and antibiotics (100 U/mL penicillin G, 100 μg/mL streptomycin). Enterovirus 71 (EV 71) strain SZ-98 was kindly provided by Dr. Qi Jin, Institute of Pathogen Biology, Chinese Academy of Medical Science and Peking Union Medical School. […] Enterovirus 71 (EV 71) strain JS-52-3 was kindly provided by Dr. Xiang-zhong Ye, Beijing Wantai Biological Pharmacy Enterprise Co., Ltd. All Enterovirus 71 strains were propagated in Vero cells.
(§1) All compounds were dissolved in DMSO at 20 mg/mL as a stock solution and further diluted in culture medium prior to use. The initial concentration in all cytotoxicity assay was 200 µg/mL, and inhibition assay for anti-EV71 experiments was from maximum non-toxic concentration, and proceeded serially 3-fold dilution with culture medium. All cytotoxicity and activity assay for each compound was repeated for three times, and the data was indicated as average ± SD.
The cytotoxicity of compounds in the presence of Vero cells was monitored by cytopathic effect (CPE). Vero cells (2.5 × 10^4/well) were plated into a 96-well plate. A total of 24 h later, the monolayer cells were incubated in the presence of various concentrations of test compounds. […] The median toxic concentration (TC50) was calculated by Reed & Muench analyses.

[1] = system: EV 71 strain SZ-98 (genotype C4); experiment: Anti EV 71 activity assay (CPE, Reed & Muench) in Vero cells, strain SZ-98; type: cell-based, Enterovirus 71; settings: for IC50: EV 71 strain SZ-98, Vero cells, 100 TCID50, CPE, average ± SD, n=3; for SI SZ-98: selectivity index TC50/IC50, strain SZ-98, "-" stands for no antiviral selectivity
Experimental: (§2) The EV 71 was divided into three genotypes A, B and C based on nucleotide sequence comparisons, and genotypes B and C were subdivided into B1-B5 and C1-C5 [6, 10]. Genotype C is the most common genotype found in mainland China, especially the C4 subgenotype. Consequently, the intermediate compounds 1a, 1c and 1e, and the final products 2a–c, 3a–g, and 5a–f were evaluated for their anti-EV 71 activity in Vero cells against genotypes C4 (strains SZ-98 and JS-52-3), C2 (strain H) and A (strain BrCr). […] The IC50 values were calculated by the Reed and Muench method, and the cytotoxicity was monitored by the CPE method.
(§3) Vero cells were purchased from the American Type Culture Collection and cultured in Minimum Essential Medium (MEM) supplemented with 10% Fetal Bovine Serum (FBS) and antibiotics (100 U/mL penicillin G, 100 μg/mL streptomycin). Enterovirus 71 (EV 71) strain SZ-98 was kindly provided by Dr. Qi Jin, Institute of Pathogen Biology, Chinese Academy of Medical Science and Peking Union Medical School. Enterovirus 71 (EV 71) strain BrCr (VR-1775) was purchased from the American Type Culture Collection. Enterovirus 71 (EV 71) strain JS-52-3 was kindly provided by Dr. Xiang-zhong Ye, Beijing Wantai Biological Pharmacy Enterprise Co., Ltd. All Enterovirus 71 strains were propagated in Vero cells.
as §1
(§4) Confluent Vero cells grown in 96-well microplates were infected respectively with 100 median tissue culture infective dose (TCID50) EV 71. After 1 h adsorption at 37 °C, the monolayers were washed by PBS and incubated at 37 °C in the maintenance medium with or without different concentrations of test compounds.

[2] = system: EV 71 strain JS-52-3 (genotype C4); experiment: Anti EV 71 activity assay (CPE, Reed & Muench) in Vero cells, strain JS-52-3; type: cell-based, Enterovirus 71; settings: for IC50: EV 71 strain JS-52-3, Vero cells, 100 TCID50, CPE, average ± SD, n=3; for SI JS-52-3: selectivity index TC50/IC50, strain JS-52-3, "-" stands for no antiviral selectivity
Experimental: as §2, §3, §1, §4

[3] = system: EV 71 strain H (genotype C2); experiment: Anti EV 71 activity assay (CPE, Reed & Muench) in Vero cells, strain H; type: cell-based, Enterovirus 71; settings: for IC50: EV 71 strain H (C2 genotype), Vero cells, 100 TCID50, CPE, average ± SD, n=3; for SI H: selectivity index TC50/IC50, strain H, "-" stands for no antiviral selectivity
Experimental: as §2, §3, §1, §4

[4] = system: EV 71 strain BrCr (genotype A); experiment: Anti EV 71 activity assay (CPE, Reed & Muench) in Vero cells, strain BrCr; type: cell-based, Enterovirus 71; settings: for IC50: EV 71 strain BrCr, Vero cells, 100 TCID50, CPE, average ± SD, n=3; for SI BrCr: selectivity index TC50/IC50, strain BrCr, "-" stands for no antiviral selectivity
Experimental: as §2, §3, §1, §4

[5] = system: EV 71 strains SZ-98, JS-52-3, H, BrCr; experiment: Anti EV 71 activity assay in Vero cells, summary over the four strains tested; type: cell-based, Enterovirus 71; settings: TC50/IC50, range over the EV 71 strains tested
Experimental: as §2, §3, §1, §4

SMILES | TC50 (Vero cells) [µM] | IC50 ([1]; Enterovirus A, Vero) [µM] | IC50 ([2]; Enterovirus A, Vero) [µM] | SI JS-52-3 [2] | IC50 ([3]; Enterovirus A, Vero) [µM] | SI H [3] | IC50 ([4]; Enterovirus A, Vero) [µM] | SI BrCr [4] | melting point [°C] | SI SZ-98 [1] | IC50 [4] [µM] | selectivity index (SI) values (range over strains) [5] | IC50 [1] [µM] | IC50 [2] [µM] | IC50 [3] [µM]
CCC(=O)Nc1cc(C(=O)Nc2ccccc2)ccc1OC [Compound 5a] | >670 | > 75 | 58 ± 4.9 | >12 | 96 ± 10 | >7.0 | 45 ± 10 |  |  |  |  |  |  |  | 
CNc1cc(C(=O)Nc2ccccc2)ccc1OC [Compound 3a, 4-Methoxy-3-methylamino-N-phenylbenzamide] | 780 ± 0.0 | > 260 | 260 | 3.0 | 260 | 3.0 | 180 ± 14 | 4.3 | 170 to 172 |  |  |  |  |  | 
CCCNc1cc(C(=O)Nc2ccc(Cl)cc2)ccc1OC [Compound 3f, N-(4-Chlorophenyl)-4-methoxy-3-propylaminobenzamide] | 120 | > 70 | > 70 |  | > 70 |  | > 70 |  | 168 to 171 |  |  |  |  |  | 
COc1ccc(C(=O)Nc2ccccc2)cc1N [Compound 1a] | >820 | 350 ± 24 | 160 ± 7.9 | 5.2 | 190 ± 14 | 4.3 | 160 ± 12 | 5.2 |  |  |  |  |  |  | 
COc1ccc(C(=O)Nc2ccccc2)cc1OC(C)=O [Compound 5f, 4-Methoxy-N-phenyl-3-acetoxybenzamide] | 360 ± 39 | 90 ± 11 | 98 ± 4.7 | 3.7 | 47 ± 6.1 | 7.6 | 95 ± 9 | 3.8 | 153 to 155 | 4.0 |  |  |  |  | 
CCCNc1cc(C(=O)Nc2cc(OC)c(OC)c(OC)c2)ccc1OC [Compound 3g, 4-Methoxy-3-(propylamino)-N-(3,4,5-trimethoxyphenyl)benzamide] | 530 | > 59 | 34 ± 2.5 | 16 | ~15 | 35 | ~15 | 27 | 164 to 167 |  | 20 ± 3.1 | 16–35 |  |  | 
CCC(=O)Nc1cc(C(=O)Nc2ccc(Br)cc2)ccc1OC [Compound 5c] | 530 ± 0.0 | ~15 | ~15 | 27 | ~15 | 63 | 34 | 16 |  | 47 |  | 16–63 | 11 ± 0.8 | 20 ± 3.1 | 8.4 ± 1.2
COc1ccc(C(=O)Nc2ccc(Cl)cc2)cc1N [Compound 1c, 3-Amino-N-(4-chlorophenyl)-4-methoxybenzamide] | 520 ± 29 | ~15 | 46 ± 5.7 | 12 | 34 ± 3.6 | 16 | 56 ± 4.2 | 10 | 152 to 154 | 36 |  | 10–36 |  |  | 
